Biological target: Nav1.8 (SCN10A) (Homo sapiens, UniProt Q9Y5Y9)
Experiment: whole-cell voltage clamp, transfected ND7/[…] cells
Type: cell-based

Sequence of Nav1.8 (SCN10A) (Q9Y5Y9 whole entry): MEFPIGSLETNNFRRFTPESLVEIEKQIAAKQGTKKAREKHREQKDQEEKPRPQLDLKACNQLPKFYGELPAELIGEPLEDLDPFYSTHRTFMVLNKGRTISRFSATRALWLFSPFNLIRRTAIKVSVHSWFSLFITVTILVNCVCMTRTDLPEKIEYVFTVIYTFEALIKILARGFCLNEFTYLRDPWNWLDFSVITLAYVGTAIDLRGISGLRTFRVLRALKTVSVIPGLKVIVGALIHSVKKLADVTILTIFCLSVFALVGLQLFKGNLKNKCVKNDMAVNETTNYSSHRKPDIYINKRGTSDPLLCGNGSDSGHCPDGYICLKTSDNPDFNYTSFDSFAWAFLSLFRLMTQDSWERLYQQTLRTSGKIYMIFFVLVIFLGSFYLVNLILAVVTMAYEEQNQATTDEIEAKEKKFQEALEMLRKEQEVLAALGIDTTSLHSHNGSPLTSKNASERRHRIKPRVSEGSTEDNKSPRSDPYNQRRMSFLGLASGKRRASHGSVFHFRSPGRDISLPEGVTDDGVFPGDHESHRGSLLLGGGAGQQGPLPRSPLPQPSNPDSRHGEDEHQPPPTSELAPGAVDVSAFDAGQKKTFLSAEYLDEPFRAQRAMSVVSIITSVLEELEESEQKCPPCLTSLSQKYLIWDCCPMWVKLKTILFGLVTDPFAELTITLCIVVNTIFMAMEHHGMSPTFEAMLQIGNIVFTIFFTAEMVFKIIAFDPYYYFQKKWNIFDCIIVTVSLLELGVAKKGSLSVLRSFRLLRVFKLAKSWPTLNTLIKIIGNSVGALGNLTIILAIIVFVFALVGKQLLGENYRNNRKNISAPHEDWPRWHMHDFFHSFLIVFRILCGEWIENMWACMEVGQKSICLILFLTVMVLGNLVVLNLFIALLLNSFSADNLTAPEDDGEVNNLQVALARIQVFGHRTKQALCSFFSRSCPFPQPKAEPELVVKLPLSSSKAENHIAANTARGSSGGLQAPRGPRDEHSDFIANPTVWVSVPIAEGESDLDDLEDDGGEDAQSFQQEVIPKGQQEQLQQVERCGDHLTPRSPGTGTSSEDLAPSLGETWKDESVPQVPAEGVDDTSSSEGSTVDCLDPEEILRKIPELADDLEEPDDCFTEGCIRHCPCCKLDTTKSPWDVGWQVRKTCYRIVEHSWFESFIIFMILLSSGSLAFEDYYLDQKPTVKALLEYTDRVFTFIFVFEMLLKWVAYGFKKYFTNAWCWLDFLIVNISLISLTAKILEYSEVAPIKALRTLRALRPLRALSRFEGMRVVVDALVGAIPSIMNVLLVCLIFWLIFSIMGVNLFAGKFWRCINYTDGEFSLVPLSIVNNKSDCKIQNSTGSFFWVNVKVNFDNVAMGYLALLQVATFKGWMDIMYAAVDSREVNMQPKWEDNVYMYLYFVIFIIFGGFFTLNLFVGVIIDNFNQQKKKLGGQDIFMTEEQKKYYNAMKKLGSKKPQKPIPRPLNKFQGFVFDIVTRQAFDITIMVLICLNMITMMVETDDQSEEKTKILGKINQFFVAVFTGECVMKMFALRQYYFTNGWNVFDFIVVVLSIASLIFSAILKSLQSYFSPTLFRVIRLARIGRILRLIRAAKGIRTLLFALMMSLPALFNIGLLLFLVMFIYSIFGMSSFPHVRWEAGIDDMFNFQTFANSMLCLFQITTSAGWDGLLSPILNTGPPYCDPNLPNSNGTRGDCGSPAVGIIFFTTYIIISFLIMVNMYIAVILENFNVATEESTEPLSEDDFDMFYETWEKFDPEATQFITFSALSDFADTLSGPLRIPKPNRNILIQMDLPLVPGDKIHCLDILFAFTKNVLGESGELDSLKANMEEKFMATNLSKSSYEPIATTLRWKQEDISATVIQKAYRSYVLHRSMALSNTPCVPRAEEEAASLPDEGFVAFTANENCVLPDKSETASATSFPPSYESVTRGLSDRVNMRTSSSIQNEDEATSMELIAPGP

COc1cc(NC(=O)c2ccc(-c3ccc(Cl)cc3)o2)cc(OC)c1 [A-803467] was tested, and the IC50 was roughly 10 nM.

Reference: paper PMC3412150 (Circulation research, 2012)
